The results in this text go back to patent US9617282B2, “Macrocyclic compounds as IRAK4 inhibitors for the treatment of inflammatory diseases” (BIOGEN MA INC., priority 2013, dated 2017).

In test [1] the test system is A549 cells. Put plainly: Cell-based assay, IL-6 ELISA quantification in IL-1 beta stimulated A549 cells. The following applies: 2 ng/ml human IL-1 beta overnight, class symbols, read-out: Celluar Data EC50. The procedure:
The cell-based assays is based on IL-6 ELISA quantification. Briefly, A549 cells are cultured in DMEM with 10% FBS medium. When cells reach 80% confluence they are trypsin treated and seeded in 96-well plate at 2.5×10^4 cells/well. Then, 20 ul of compound serial dilutions (starting at 10 uM, 10 points) are added to the cell plate; incubate for 1 hour at 37 C and stimulated with 2 ng/ml human IL-1 beta 37 C overnight. The next day 100 ul of cell supernatant per well are analyzed on a Human IL-6 Quantikine ELISA kit from R&D Systems.

For test [2], the target named is IRAK4 (Homo sapiens (Human), UniProt Q9NWZ3). Put plainly: IRAK-4 biochemical kinase assay, AlphaScreen format. The note with it: 1 nM IRAK4, 1.6 μM peptide, 10 μM ATP, 3.5 h at RT; class symbols. The protocol: The biochemical assay is in a AlphaScreen format. The kinase reaction is based on the IRAK-4 phosphorylation of a biotin labeled peptide. The phosphopeptide is incubated with anti-phosphothreonine antibody as well as streptavidin- and protein A-coated beads. Binding of the protein-A coated beads to the antibody and the streptavidin beads to the peptide, leads to an energy transfer from one bead to the other, ultimately producing a luminescent/fluorescent signal.
Chain of IRAK4 (Q9NWZ3 whole entry, species assumed): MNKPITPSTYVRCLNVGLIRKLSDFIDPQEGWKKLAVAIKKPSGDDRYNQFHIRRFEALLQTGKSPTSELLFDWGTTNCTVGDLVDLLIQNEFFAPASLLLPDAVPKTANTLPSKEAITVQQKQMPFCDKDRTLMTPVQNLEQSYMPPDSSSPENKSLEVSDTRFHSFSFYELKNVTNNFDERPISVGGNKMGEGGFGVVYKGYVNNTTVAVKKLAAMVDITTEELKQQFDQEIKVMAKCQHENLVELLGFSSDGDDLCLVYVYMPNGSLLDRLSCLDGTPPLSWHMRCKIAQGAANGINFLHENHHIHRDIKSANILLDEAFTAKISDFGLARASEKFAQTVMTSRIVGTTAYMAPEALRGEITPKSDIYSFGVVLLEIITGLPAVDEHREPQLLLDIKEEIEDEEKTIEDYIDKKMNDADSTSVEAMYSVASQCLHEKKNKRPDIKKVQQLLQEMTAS
Background: In Alpha technology, singlet oxygen from a donor bead excites a nearby acceptor bead.

pEC50, pIC50: −log10 of the molar value.

Take `CC(C)(C)OC(=O)N1CCN(CCn2cc3c(n2)C(=O)NCCOCCOc2cc(ccn2)-c2nc(cs2)C(=O)N3)CC1` [Example 114]: the pEC50 in test [1] is less than 5.00. Besides, in test [2], the negative-log IC50 (pIC50) was more than 7.00.
The corresponding values for `Cn1cc2c(n1)C(=O)NCCCCCc1cc(ccn1)-c1nc(cs1)C(=O)N2` [Example 96] are more than 5.00 and more than 7.00.
`O=C1Nc2cn(CCN3CCOCC3)nc2C(=O)NCCOCCNc2cc(ccn2)-c2nc1cs2` [Example 118]: the negative logarithm of the EC50 (pEC50) in test [1] is more than 6.00. For the same compound, in test [2], the pIC50 was more than 7.00.
The corresponding values for `CC(C)(C)OC(=O)N1CCN(CCn2ncc3c2C(=O)NCCOCCOc2cc(ccn2)-c2nc(cs2)C(=O)N3)CC1` [Example 108] are less than 5.00 and more than 6.00.
The matching figures for `O=C1Nc2cccnc2C(=O)NCCOCCOc2cc(ccn2)-c2nc1cs2` [Example 128]: less than 5.00 and more than 7.00.
The corresponding values for `O=C1Nc2cn(CC3CCNCC3)nc2C(=O)NCCOCCOc2cc(ccn2)-c2nc1cs2` [Example 160] are less than 5.00 and more than 6.00.
On to `CC(C)(C)OC(=O)N1CCC(Cn2cc3c(n2)C(=O)NCCOCCOc2cc(ccn2)-c2nc(cs2)C(=O)N3)CC1` [Example 159], for which the negative logarithm of the EC50 (pEC50) in test [1] was more than 5.00. Also, in test [2], the pIC50 is more than 7.00.
The matching figures for `O=C1Nc2cn(C3CCCCO3)nc2C(=O)NCCOCCOc2cc(ccn2)-c2nc1cs2` (stereo not shown) [Example 110]: more than 5.00 and more than 7.00.
The matching figures for `Cn1cc2c(n1)C(=O)NCCCOCCOc1cc(ccn1)-c1nc(cs1)C(=O)N2` [Example 120]: more than 6.00 and more than 7.00.
The matching figures for `Cn1cc2c(n1)C(=O)NCCCCOc1cc(ccn1)-c1nc(co1)C(=O)N2` [Compound 34]: more than 6.00 and more than 7.00.
As to `Cn1cc2c(n1)C(=O)NCCCCNc1cc(ccn1)-c1nc(cs1)C(=O)N2` [Example 131], the pEC50 in test [1] was more than 6.00. Besides, the negative-log IC50 (pIC50) in test [2] was more than 7.00.
The matching figures for `CNC(=O)Cn1cc2c(n1)C(=O)NCCOCCOc1cc(ccn1)-c1nc(cs1)C(=O)N2` [Example 161]: less than 5.00 and more than 7.00.
The matching figures for `O=C(O)CCn1cc2c(n1)C(=O)NCCOCCOc1cc(ccn1)-c1nc(cs1)C(=O)N2` [Example 149]: less than 5.00 and more than 6.00.
The corresponding values for `CN1CCC(CCn2cc3c(n2)C(=O)NCCOCCOc2cc(ccn2)-c2nc(cs2)C(=O)N3)CC1` [Example 153] are less than 5.00 and more than 7.00.
Regarding `O=C1Nc2ccccc2C(=O)NCCOCCOc2cc(ccn2)-c2nc1cs2` [Example 127], the negative logarithm of the EC50 (pEC50) in test [1] is more than 6.00. This compound also gave a pIC50 in test [2] of more than 7.00.
With `CC(C)(C)OC(=O)Cn1cc2c(n1)C(=O)NCCOCCOc1cc(ccn1)-c1nc(cs1)C(=O)N2` [Example 137], the negative logarithm of the EC50 (pEC50) in test [1] is less than 5.00. The negative logarithm of the IC50 (pIC50) in test [2] was more than 7.00.
The matching figures for `O=C1Nc2cn(C3CCOCC3)nc2C(=O)NC2CC(=O)N(CCCc3cc(ccn3)-c3nc1cs3)C2=O` (stereo not shown) [Example 200]: more than 5.00 and more than 7.00.
Turning to `O=C1Nc2cn(C3CCOCC3)nc2C(=O)NCCOCCCc2cc(ccn2)-c2nc1cs2` [Compound 47], the negative-log EC50 (pEC50) in test [1] was more than 6.00. In test [2], this compound showed a negative logarithm of the IC50 (pIC50) of more than 7.00.
The matching figures for `CC(C)(C)OC(=O)N1CCC(n2cc3c(n2)C(=O)NCCOCCOc2cc(ccn2)-c2nc(cs2)C(=O)N3)CC1` [Example 164]: more than 5.00 and more than 7.00.
The matching figures for `CN1CCC(Cn2cc3c(n2)C(=O)NCCOCCOc2cc(ccn2)-c2nc(cs2)C(=O)N3)CC1` [Example 158]: less than 5.00 and more than 6.00.
The matching figures for `O=C1CCNC(=O)c2csc(n2)-c2ccnc(c2)OCCOCCN1` [Example 126]: less than 5.00 and more than 6.00.
Consider `NC(=O)CCn1cc2c(n1)C(=O)NCCOCCOc1cc(ccn1)-c1nc(cs1)C(=O)N2` [Example 151], for which, in test [1], the pEC50 is less than 5.00. Also, the pIC50 in test [2] was more than 6.00.
For `O=C1NC[C@@H]2CC[C@@H](C2)OCCCNc2cc(ccn2)-c2nc1cs2` [Example 83], the negative logarithm of the EC50 (pEC50) in test [1] is more than 5.00. Further, the pIC50 in test [2] is more than 7.00.
The corresponding values for `O=C1Nc2ccccc2OCCCCCNc2cc(ccn2)-c2nc1co2` [Compound 2] are more than 6.00 and more than 7.00.
The matching figures for `O=C1Nc2cnccc2C(=O)NCCOCCOc2cc(ccn2)-c2nc1cs2` [Example 130]: more than 6.00 and more than 7.00.
In the case of `Cn1cc2c(n1)C(=O)NCCOCCCOc1cc(ccn1)-c1nc(cs1)C(=O)N2` [Example 122], in test [1], the pEC50 is more than 6.00. Besides, in test [2], the pIC50 is more than 7.00.
The matching figures for `O=C1Nc2cn(C3CCOCC3)nc2C(=O)NCCCCCc2cc(ccn2)-c2nc1co2` [Compound 40]: more than 5.00 and more than 7.00.
The corresponding values for `O=C1Nc2cn(CCN3CCCCC3)nc2C(=O)NCCOCCOc2cc(ccn2)-c2nc1cs2` [Example 116] are less than 5.00 and more than 7.00.
`O=C(O)Cn1cc2c(n1)C(=O)NCCOCCOc1cc(ccn1)-c1nc(cs1)C(=O)N2` [Example 146]: the negative-log EC50 (pEC50) in test [1] is less than 5.00. In test [2], the pIC50 is more than 5.00.
The matching figures for `O=C1NC[C@H]2CC[C@@H](C2)OCCCNc2cc(ccn2)-c2nc1cs2` [Example 82]: more than 5.00 and more than 6.00.
`CN(C)CCn1cc2c(n1)C(=O)NCCOCCNc1cc(ccn1)-c1nc(cs1)C(=O)N2` [Example 117]: in test [1], the pEC50 was more than 5.00. Further, the pIC50 in test [2] was more than 7.00.
The matching figures for `CN(C)CCCn1cc2c(n1)C(=O)NCCOCCOc1cc(ccn1)-c1nc(cs1)C(=O)N2` [Example 138]: less than 5.00 and more than 7.00.
Turning to `CC(=O)N1CCCc2cc(ccn2)-c2nc(cs2)C(=O)Nc2cn(C3CCOCC3)nc2C(=O)NCC1` [Example 170], the negative-log EC50 (pEC50) in test [1] was more than 6.00. Besides, the pIC50 in test [2] was more than 7.00.
As for `Cn1cc2c(n1)C(=O)NCCCCOc1cc(ccn1)-c1nc(cs1)C(=O)N2` [Example 91], the pEC50 in test [1] was more than 6.00. Also, the negative logarithm of the IC50 (pIC50) in test [2] is more than 7.00.
The matching figures for `O=C1Nc2cnn(CCN3CCNCC3)c2C(=O)NCCOCCOc2cc(ccn2)-c2nc1cs2` [Example 109]: less than 5.00 and more than 5.00.
The corresponding values for `O=C1Nc2cn(C3CCOCC3)nc2C(=O)NCCOCCCn2cc(cn2)-c2nc1cs2` [Example 136] are more than 6.00 and more than 7.00.
With `O=C1Nc2cn(CCC3CCNCC3)nc2C(=O)NCCOCCOc2cc(ccn2)-c2nc1cs2` [Example 155], the pEC50 in test [1] is less than 5.00. The compound also showed a pIC50 in test [2] of more than 7.00.
The corresponding values for `Cn1cc2c(n1)C(=O)NCCCCCCNc1cc(ccn1)-c1nc(co1)C(=O)N2` [Compound 32] are more than 6.00 and more than 7.00.
The corresponding values for `CN1CCN(CCn2cc3c(n2)C(=O)NCCOCCOc2cc(ccn2)-c2nc(cs2)C(=O)N3)CC1` [Example 113] are more than 5.00 and more than 7.00.
The corresponding values for `Cn1cc2c(n1)C(=O)NCCOCCCCc1cc(ccn1)-c1nc(cs1)C(=O)N2` [Example 217] are more than 5.00 and more than 7.00.
Consider `O=C1Nc2ccccc2OC(CO)CCCCNc2cc(ccn2)-c2nc1co2` (stereo not shown) [Compound 12], for which, in test [1], the negative-log EC50 (pEC50) was more than 6.00. This compound gave a pIC50 in test [2] of more than 7.00.
Consider `O=C1Nc2cn(C3CCOCC3)nc2C(=O)NCCCCOc2cc(ccn2)-c2nc1cs2` [Example 90], for which the pEC50 in test [1] is more than 5.00. Further, the pIC50 in test [2] was more than 7.00.
The corresponding values for `O=C1Nc2cn(CCN3CCCCC3)nc2C(=O)NCCOCCNc2cc(ccn2)-c2nc1cs2` [Example 119] are more than 6.00 and more than 7.00.
The matching figures for `Cn1cc2c(n1)C(=O)NCCC/C=C/CCCNc1cc(ccn1)-c1nc(co1)C(=O)N2` [Example 140]: more than 6.00 and more than 7.00.
Turning to `CN(C)CCNC(=O)c1ccc2c(c1)NC(=O)c1csc(n1)-c1ccnc(c1)NCCCCCO2` [Compound 16], the negative-log EC50 (pEC50) in test [1] is less than 5.00. This compound also showed a pIC50 in test [2] of more than 7.00.
The corresponding values for `CC(C)(C)OC(=O)N1CCN(CCn2cc3c(n2)C(=O)NCCOCCNc2cc(ccn2)-c2nc(cs2)C(=O)N3)CC1` [Example 144] are more than 5.00 and more than 7.00.
The matching figures for `O=C1Nc2cn(C3CCOCC3)nc2C(=O)NCCCCCc2cc(ccn2)-c2nc1cs2` [Example 95]: more than 6.00 and more than 7.00.
With `O=C1Nc2cn(C3CCOCC3)nc2C(=O)NCCOCCCOc2cc(ccn2)-c2nc1cs2` [Example 123], the pEC50 in test [1] was more than 6.00. Also, the pIC50 in test [2] was more than 7.00.
As to `CN(C)C(=O)Cn1cc2c(n1)C(=O)NCCOCCOc1cc(ccn1)-c1nc(cs1)C(=O)N2` [Example 166], in test [1], the negative-log EC50 (pEC50) is less than 5.00. This compound also gave a negative logarithm of the IC50 (pIC50) in test [2] of more than 6.00.
For `CC(C)n1cc2c(n1)C(=O)NCCOCCOc1cc(ccn1)-c1nc(cs1)C(=O)N2` [Example 162], the pEC50 in test [1] is less than 5.00. Besides, in test [2], the pIC50 was more than 7.00.
The matching figures for `Cn1cc2c(n1)C(=O)NCCCCCCCCNc1cc(ccn1)-c1nc(co1)C(=O)N2` [Compound 29]: more than 6.00 and more than 7.00.
With `O=C(O)CCN1CCCc2cc(ccn2)-c2nc(cs2)C(=O)Nc2cn(C3CCOCC3)nc2C(=O)NCC1` [Example 179], in test [2], the pIC50 is more than 7.00.

A word on the pEC50: it is −log10 of the EC50, conventionally taken in molar units. The term pIC50 denotes the negative decadic logarithm of the IC50, by convention in mol/L.
